14 compounds from PubChem BioAssay AID212 (DTP/NCI, 2004) can be followed below.

Where “and” joins values, the source holds several entries; their conditions need not be identical. Equal entries are not always repeated. Records with an inconclusive call do not appear.

For this assay, the system named is BDF1 mice, colon carcinoma 38 sc, T/C %. Put plainly: NCI In Vivo Anticancer Drug Screen. Data for tumor model Colon Carcinoma 38 (subcutaneous) in B6D2F1 (BDF1) mice. The gist of the method: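 Ratio of survival or tumor size, compound-treated animals relative to vehicle controls, in tumor-bearing mice.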
The mark [1] stands for this setting: endpoint: median tumor weight (est.), dose: 25.0 mg/kg/injection, schedule: Q07DX002 (ip), vehicle: Klucel (hydroxypropylcellulose) (HPC), higher = larger tumour.
[2] abbreviates: endpoint: median tumor weight (est.), dose: 50.0 mg/kg/injection, schedule: Q07DX002 (ip), vehicle: Klucel (hydroxypropylcellulose) (HPC), higher = larger tumour.
[3] abbreviates: endpoint: median tumor weight (est.), dose: 100.0 mg/kg/injection, schedule: Q07DX002 (ip), vehicle: Klucel (hydroxypropylcellulose) (HPC), higher = larger tumour.
The mark [4] stands for this setting: endpoint: median tumor weight (est.), dose: 200.0 mg/kg/injection, schedule: Q07DX002 (ip), vehicle: Klucel (hydroxypropylcellulose) (HPC), higher = larger tumour.
The mark [5] stands for this setting: endpoint: median tumor weight (est.), dose: 12.5 mg/kg/injection, schedule: Q07DX002 (ip), vehicle: saline, higher = larger tumour.
Where [6] appears, read: endpoint: median tumor weight (est.), dose: 25.0 mg/kg/injection, schedule: Q07DX002 (ip), vehicle: saline, higher = larger tumour.
Where [7] appears, read: endpoint: median tumor weight (est.), dose: 50.0 mg/kg/injection, schedule: Q07DX002 (ip), vehicle: saline, higher = larger tumour.
The mark [8] stands for this setting: endpoint: median tumor weight (est.), dose: 200.0 mg/kg/injection, schedule: Q07DX002 (ip), vehicle: saline, higher = larger tumour.

Regarding `C[N+](C)(C)c1cc2c(nn1)Nc1ccccc1S2`, the T/C reads like this: (endpoint: median tumor weight (est.), dose: 6.25 mg/kg/injection, schedule: Q07DX002 (ip), vehicle: Klucel (hydroxypropylcellulose) (HPC), higher = larger tumour) 109 % of control; (endpoint: median tumor weight (est.), dose: 12.5 mg/kg/injection, schedule: Q07DX002 (ip), vehicle: Klucel (hydroxypropylcellulose) (HPC), higher = larger tumour) 122 % of control; under setting [1], 89 % of control and 90 % of control; under setting [2], 97 % of control; under setting [3], 89 % of control.

On to `ClC(Cl)=C(Cl)Cl`, for which the T/C runs as follows: (endpoint: median tumor weight (est.), dose: 28.0 mg/kg/injection, schedule: Q07DX002 (ip), vehicle: saline with Tween-80, higher = larger tumour) 88 % of control and 103 % of control; (endpoint: median tumor weight (est.), dose: 50.0 mg/kg/injection, schedule: Q07DX002 (ip), vehicle: other, higher = larger tumour) 79 % of control; (endpoint: median tumor weight (est.), dose: 56.0 mg/kg/injection, schedule: Q07DX002 (ip), vehicle: saline with Tween-80, higher = larger tumour) 79 % of control and 100 % of control; (endpoint: median tumor weight (est.), dose: 100.0 mg/kg/injection, schedule: Q07DX002 (ip), vehicle: other, higher = larger tumour) 109 % of control and 112 % of control; (endpoint: median tumor weight (est.), dose: 112.0 mg/kg/injection, schedule: Q07DX002 (ip), vehicle: saline with Tween-80, higher = larger tumour) 52 % of control; (endpoint: median tumor weight (est.), dose: 400.0 mg/kg/injection, schedule: Q07DX002 (ip), vehicle: other, higher = larger tumour) 91 % of control. Further, the T/C (endpoint: median tumor weight (est.), dose: 800.0 mg/kg/injection, schedule: Q07DX002 (ip), vehicle: other, higher = larger tumour) was 71 % of control.

As for `CCC[CH2][Hg][Cl]`, the T/C reads like this: (endpoint: median tumor weight (est.), dose: 0.62 mg/kg/injection, schedule: Q07DX002 (ip), vehicle: Klucel (hydroxypropylcellulose) (HPC), higher = larger tumour) 99 % of control; (endpoint: median tumor weight (est.), dose: 2.5 mg/kg/injection, schedule: Q07DX002 (ip), vehicle: Klucel (hydroxypropylcellulose) (HPC), higher = larger tumour) 92 % of control; (endpoint: median tumor weight (est.), dose: 5.0 mg/kg/injection, schedule: Q07DX002 (ip), vehicle: Klucel (hydroxypropylcellulose) (HPC), higher = larger tumour) 105 % of control; (endpoint: median tumor weight (est.), dose: 20.0 mg/kg/injection, schedule: Q07DX002 (ip), vehicle: Klucel (hydroxypropylcellulose) (HPC), higher = larger tumour) 113 % of control.

Regarding `O=C([CH-]C(=O)C(F)(F)F)c1ccccc1.O=C([CH-]C(=O)C(F)(F)F)c1ccccc1.O=C([CH-]C(=O)C(F)(F)F)c1ccccc1.O=C([CH-]C(=O)C(F)(F)F)c1ccccc1.[Eu+3].c1ccncc1`, the T/C by setting is: under setting [1], 91 % of control; under setting [2], 88 % of control; under setting [3], 76 % of control and 82 % of control; under setting [4], 79 % of control and 88 % of control.

On to `CC1(C)OC2C(COC(=O)c3ccc([N+](=O)[O-])cc3)OC(NC(=O)N(CCCl)N=O)C2O1` (stereo not given), for which the T/C (endpoint: median tumor weight (est.), dose: 6.25 mg/kg/injection, schedule: Q07DX002 (ip), vehicle: saline with Tween-80, higher = larger tumour) is 62 % of control; the T/C (endpoint: median tumor weight (est.), dose: 12.5 mg/kg/injection, schedule: Q07DX002 (ip), vehicle: saline with Tween-80, higher = larger tumour) was 112 % of control and 123 % of control; the T/C (endpoint: median tumor weight (est.), dose: 12.5 mg/kg/injection, schedule: Q07DX003 (ip), vehicle: saline with Tween-80, higher = larger tumour) is 106 % of control; the T/C (endpoint: median tumor weight (est.), dose: 25.0 mg/kg/injection, schedule: Q07DX002 (ip), vehicle: saline with Tween-80, higher = larger tumour) was 68 % of control; the T/C (endpoint: median tumor weight (est.), dose: 25.0 mg/kg/injection, schedule: Q07DX003 (ip), vehicle: saline with Tween-80, higher = larger tumour) is 88 % of control; the T/C (endpoint: median tumor weight (est.), dose: 50.0 mg/kg/injection, schedule: Q07DX002 (ip), vehicle: saline with Tween-80, higher = larger tumour) is 61 % of control and 82 % of control. Besides, the T/C by setting is: (endpoint: median tumor weight (est.), dose: 50.0 mg/kg/injection, schedule: Q07DX003 (ip), vehicle: saline with Tween-80, higher = larger tumour) 68 % of control; (endpoint: median tumor weight (est.), dose: 100.0 mg/kg/injection, schedule: Q07DX002 (ip), vehicle: saline with Tween-80, higher = larger tumour) 48 % of control and 67 % of control; (endpoint: median tumor weight (est.), dose: 100.0 mg/kg/injection, schedule: Q07DX003 (ip), vehicle: saline with Tween-80, higher = larger tumour) 40 % of control; (endpoint: median tumor weight (est.), dose: 200.0 mg/kg/injection, schedule: Q07DX003 (ip), vehicle: saline with Tween-80, higher = larger tumour) 4 % of control.

For the compound `CCC1CN2C(=N1)c1ccccc1-c1cc(Cl)ccc12` (stereo not given), the T/C is 83 % of control (endpoint: median tumor weight (est.), dose: 3.13 mg/kg/injection, schedule: Q07DX003 (ip), vehicle: suspension in saline, higher = larger tumour); 93 % of control (endpoint: median tumor weight (est.), dose: 6.25 mg/kg/injection, schedule: Q07DX003 (ip), vehicle: suspension in saline, higher = larger tumour); 118 % of control (endpoint: median tumor weight (est.), dose: 12.5 mg/kg/injection, schedule: Q07DX003 (ip), vehicle: suspension in saline, higher = larger tumour).

In the case of `CCCCCC(O)C1C(=O)OC(C)C(O)/C=C/C=C/C=C/C=C/C=C(\C)C(O)C(O)C(O)CC(O)CC(O)CC(O)CC(O)CC1O` (stereo not given), the T/C by setting is: (endpoint: median tumor weight (est.), dose: 0.5 mg/kg/injection, schedule: Q07DX002 (ip), vehicle: saline, higher = larger tumour) 92 % of control; (endpoint: median tumor weight (est.), dose: 1.0 mg/kg/injection, schedule: Q07DX002 (ip), vehicle: saline, higher = larger tumour) 118 % of control; (endpoint: median tumor weight (est.), dose: 4.0 mg/kg/injection, schedule: Q07DX002 (ip), vehicle: saline, higher = larger tumour) 90 % of control; (endpoint: median tumor weight (est.), dose: 8.0 mg/kg/injection, schedule: Q07DX002 (ip), vehicle: saline, higher = larger tumour) 95 % of control.

`CN1C(=O)NC(c2ccc(Cl)cc2)(c2ccc(Cl)cc2)C1=O`: the T/C is, setting by setting: (endpoint: median tumor weight (est.), dose: 12.5 mg/kg/injection, schedule: Q07DX002 (ip), vehicle: distilled water + Tween-80, higher = larger tumour) 95 % of control; (endpoint: median tumor weight (est.), dose: 25.0 mg/kg/injection, schedule: Q07DX002 (ip), vehicle: distilled water + Tween-80, higher = larger tumour) 105 % of control; (endpoint: median tumor weight (est.), dose: 50.0 mg/kg/injection, schedule: Q07DX002 (ip), vehicle: distilled water + Tween-80, higher = larger tumour) 51 % of control; (endpoint: median tumor weight (est.), dose: 100.0 mg/kg/injection, schedule: Q07DX002 (ip), vehicle: distilled water + Tween-80, higher = larger tumour) 97 % of control; (endpoint: median tumor weight (est.), dose: 200.0 mg/kg/injection, schedule: Q07DX002 (ip), vehicle: distilled water + Tween-80, higher = larger tumour) 52 % of control; (endpoint: median tumor weight (est.), dose: 400.0 mg/kg/injection, schedule: Q07DX002 (ip), vehicle: distilled water + Tween-80, higher = larger tumour) 58 % of control.

As to `O=C(O)CSc1c(Cl)c(=O)oc2ccc(Cl)cc12`, the T/C runs as follows: under setting [1], 93 % of control; under setting [2], 113 % of control; under setting [3], 81 % of control; under setting [4], 120 % of control.

`O=c1[nH]cnc2c1ncn2C1OC(CO)C(O)C1O` (stereo not given): the T/C was 108 % of control (endpoint: median survival time, dose: 250.0 mg/kg/injection, schedule: Q04DX004 (ip), vehicle: saline with Tween-80, higher = longer survival); 107 % of control (endpoint: median survival time, dose: 250.0 mg/kg/injection, schedule: Q04DX004 (ip), vehicle: saline, higher = longer survival); 121 % of control (endpoint: median survival time, dose: 500.0 mg/kg/injection, schedule: Q04DX004 (ip), vehicle: saline with Tween-80, higher = longer survival); 120 % of control (endpoint: median survival time, dose: 500.0 mg/kg/injection, schedule: Q04DX004 (ip), vehicle: saline, higher = longer survival); 60 % of control (endpoint: median survival time, dose: 1000.0 mg/kg/injection, schedule: Q04DX004 (ip), vehicle: saline with Tween-80, higher = longer survival); 58 % of control (endpoint: median survival time, dose: 1000.0 mg/kg/injection, schedule: Q04DX004 (ip), vehicle: saline, higher = longer survival).

Regarding `COC(=O)C(Cl)(Cl)N=Nc1c(Cl)cc(Cl)c(C)c1Cl`, the T/C runs as follows: under setting [5], 118 % of control; under setting [6], 123 % of control; under setting [7], 123 % of control; under setting [8], 101 % of control.

Take `CC1(C)CC23C4COC(=O)C2CCC1C3CC4=O` (stereo not given): the T/C is 116 % of control and 101 % of control (endpoint: median tumor weight (est.), dose: 6.25 mg/kg/injection, schedule: Q07DX002 (ip), vehicle: DMSO, higher = larger tumour); 81 % of control and 92 % of control (endpoint: median tumor weight (est.), dose: 25.0 mg/kg/injection, schedule: Q07DX002 (ip), vehicle: DMSO, higher = larger tumour); 121 % of control and 105 % of control (endpoint: median tumor weight (est.), dose: 50.0 mg/kg/injection, schedule: Q07DX002 (ip), vehicle: DMSO, higher = larger tumour); 103 % of control (endpoint: median tumor weight (est.), dose: 200.0 mg/kg/injection, schedule: Q07DX002 (ip), vehicle: DMSO, higher = larger tumour).

For the compound `O=c1[nH]c(=O)n(C2CC(O)C(CO)O2)cc1Br` (stereo not given), the T/C runs as follows: under setting [2], 112 % of control; (endpoint: median tumor weight (est.), dose: 400.0 mg/kg/injection, schedule: Q07DX002 (ip), vehicle: Klucel (hydroxypropylcellulose) (HPC), higher = larger tumour) 86 % of control and 87 % of control; (endpoint: median tumor weight (est.), dose: 800.0 mg/kg/injection, schedule: Q07DX002 (ip), vehicle: Klucel (hydroxypropylcellulose) (HPC), higher = larger tumour) 88 % of control.

Consider `COc1cc(C2C3=C(CC(C)(C)CC3=O)N(CC(=O)O)C3=C2C(=O)CC(C)(C)C3)ccc1O`, for which the T/C under setting [5] is 90 % of control; the T/C under setting [6] was 99 % of control; the T/C under setting [7] is 118 % of control; the T/C (endpoint: median tumor weight (est.), dose: 100.0 mg/kg/injection, schedule: Q07DX002 (ip), vehicle: saline, higher = larger tumour) is 111 % of control; the T/C under setting [8] is 55 % of control; the T/C (endpoint: median tumor weight (est.), dose: 400.0 mg/kg/injection, schedule: Q07DX002 (ip), vehicle: saline, higher = larger tumour) was 118 % of control.
